Results taken from US20090305225A1, “Inhibition of Creatine Uptake to Promote Weight Loss” (priority 2005, published 2009).

Experiments:
[1] = test system: creatine transporter (CrT) protein; assay: Creatine transporter immunoreactivity in rat brain; assay type: in vivo; conditions: 4 hours after icv 0.4 um/kg; dorsomedial, supramamillary nucleus, III ventricle, habenular (p<0.05), paraventricular thalamic areas; FIG. 7
Protocol: In experiments involving immunohistochemistry, animals were injected icv with CoPP 0.4 umol/kg body weight or with vehicle. Four hours after injection, animals were anesthetized with halothane and perfused through the left ventricle of the heart, initially with oxygenated Krebs buffer and then with ˜350 ml of 4% paraformaldehyde in 0.1M NaCl, pH 7.4 phosphate buffered saline (PBS). Brains were extracted from the skull, hypothalamic blocks dissected (by coronal cuts anterior and posterior to hypothalamic landmarks) and post-fixed in 4% paraformaldehyde solution at 4 degrees C. overnight. The following day, the blocks were transferred to 30% sucrose and incubated overnight at 4 degrees C. […] They were allowed to dry, rewetted with PBS buffer and cover-slipped with Citifluor (Ted Pella, Reading, Calif.). Creatine transporter (CrT) and Fos studies were performed using indirect fluorescence visualization with rabbit anti-CrT (1:40; Alpha Diagnostics, San Antonio, Tex.) with goat anti-rabbit Cy3 (Jackson Immuno Research Laboratories, Inc., West Grove, Pa.) and rabbit c-Fos-AB5 (1:2,000; Oncogene Research Products, Cambridge, Mass.) with goat anti-rabbit Cy3 (1:500; Jackson Immuno Research Laboratories, Inc.) as the secondary antibody. […] Areas of interest were quantitated on each section in which they appeared and averaged to yield means+SEM of percentages. […]

[2] = Body weight after icv CoPP in rats; assay type: in vivo, rat; conditions: 48 hours after icv injection, 6 animals per group
Protocol: All animal handling was approved by and done in accordance with the guidelines and requirements of the University of Vermont Institutional Animal Care Use Committee. Adult male Sprague-Dawley rats (mycoplasma free; 200 g) were purchased from Charles River (Quebec, Canada) and housed in an air-conditioned (23+1° C.) room with lights on for 12 hours daily (starting at 6:00 a.m.) in the University of Vermont Animal Facility. Rats were housed singly in regular cages with free access to Purina Rat Chow (RMH 3000) and water for at least five days prior to surgery. Stereotactic surgery was used to implant chronic indwelling stainless steel cannulae into the third ventricle of the brain under fentanyl/droperidol anesthesia. Coordinates for cannula placement were obtained from the Konig Klippel stereotactic surgery atlas; with the nose bar 2.4 mm below the intraaural line and the vertical micrometer gantry tilted 9 degrees towards the animal, the coordinates were 4.9 mm dorsal to the intraaural line, 5 mm anterior to the intraaural line and 1.1 mm lateral to the midline. A minimum of 5 days later, animals were injected icv with CoPP (which was dissolved in 0.2 N NaOH and the pH adjusted to 7.4-7.8) or other experimental compounds. […] Because of the repetitive dosing regimens, animals were trained for six days prior to the first injection to ready them for injections without anesthesia. […]

Structure (SMILES): C=Cc1c(C)c2cc3[nH]c(cc4nc(cc5nc(cc1[nH]2)C(C)=C5CCC(=O)[O-])C(CCC(=O)[O-])=C4C)c(C)c3C=C.[Co+2] [CoPP, Cobaltic protoporphyrin IX]
- immunoreactive (IR) CrT compared to controls and fasted controls [1]: increased
- Δ Weight [2]: −29%
